Experimental data: patent US6841563B1, “Aryloxy propanolamines for improving livestock production” (Eli Lilly and Company, priority 1999, dated 2005)
Marks after values point to notes of the source that are not given here.

How the values were obtained:
[1] = Weight gain, feed efficiency, breast and leg quarter weights, last 28 days of growing period in broiler chickens; assay type: in vivo; conditions: for Bone-in, Skin-on Breast Weight / Bone-in, Skin-on leg Quarter Weight / Dressing Percentage / Fat Pad Weight / Final Weight Day 49 / Hot Carcass Weight / Interim Weight Day 35 / Pen Feed Intake / Total Weight Gain (d 21-49) / Viscera Weight / Weight Gain Period 1 (d 21-35) / Weight Gain Period 2 (d 35-49) / Feed Efficiency F/G: day 21-49; for Feed Efficiency F/G: pen feed intake/total pen weight; for improvement of feed efficiency (feed/gain) compared with control: 28-day treatment period
Description: Approximately 2500 Peterson-Hubbard, day-old, male chicks were used in a randomized, complete-block design with 3 treatments (Control and Compound 6 at 3 and 15 PPM (mg/kg feed)). The testing facility contained two wings, each containing 30 pens. The pens in each wing were divided into 6 blocks of 5 pens. Treatments were randomly allotted within each block. Each treatment consisted of 12 pens with 10 birds per pen.
Day-of-age birds were obtained from Pine Manor Hatchery in Goshen, Ind. Approximately 40 birds per pen were set at random upon receipt. On day 16 of the growout period, all birds were weighed and the 15 birds closest to the block mean were selected. These birds were allowed to acclimate until day 21 of age. On this day, all remaining birds were weighed again, and the 10 birds/pen closest to the block mean were chosen for the treatment phase. Birds were provided ad libitum access to feed and water throughout the trial. All birds were fed a 23% crude protein corn-soy ration from day 1 until day 18 of age. The feed was changed to a 20% crude protein ration for day 18 to day 49. The treatment feed was mixed using the 20% crude protein basal ration. Treatments were administered in the feed from day 21 through day 49. An interim weight was taken on day 35. Feed consumption was calculated over the entire 28-day treatment period. Birds were weighed at trial completion (day 49), and were transported to Purdue University meat laboratory for slaughter and carcass measurements on day, 50. Weights of the hot carcass; fat pad; viscera; bone-in, skin-on breast; and bone-in, skin-on, leg quarter were taken on all animals.

[2] = 28-day cattle study, orally administered Compound 6: growth and carcass measurements; assay type: in vivo; conditions: for Feed efficiency / Yield grade (YG) / area of the longissimus dorsi muscle at the twelfth rib: oral, 28 days
Protocol: Thirty-two Angus crossbred steers were blocked by weight into a heavy (4 heaviest blocks, avg. initial BW=1226 lb. (557 kg)) and a light (4 lightest blocks, avg. initial BW=1164 lb. (528 kg)) replication. The steers within each block were assigned to one of four treatments (8 steers/treatment) to investigate the effects of orally administered Compound 6 on the growth and carcass measurements when fed to cattle for 28 days immediately prior to slaughter. The treatments included a CONTROL (0.0 mg Compound 6 per kg BW), and three levels of Compound 6 (LOW, 0.125 mg Compound 6 per kg BW; MED, 0.250 mg Compound 6 per kg BW; HIGH, 0.500 mg Compound 6 per kg BW). Compound 6 was mixed with ground corn and fed to the steers as a top dress on a portion of their daily feed. The CONTROL steers received a similar amount of a ground corn top dress. The steers were required to consume the initial feed and top dress before the remaining amount of feed was issued. The basal ration was a commercially available feed (19.3% CP, DM basis). Both feed and water were available ad libitum. The steers were individually housed in 12 ft×48 ft pens equipped with an individual feed bunk and automatic waterer. On day 28 the steers were weighed and a blood sample collected prior to being shipped for slaughter and subsequent carcass evaluation.

CC(C)(Cc1ccc(Oc2ncccc2C(N)=O)cc1)NC[C@H](O)COc1cccc2[nH]ccc12 [Compound 6, (S)-2-[4-[2-[2-Hydroxy-3-(1H-indol-4-yloxy)propylamino]-2-methylpropyl]-phenoxy]-3-pyridinecarboxamide]
Bone-in, Skin-on Breast Weight ([1]; 3 PPM in feed): 618.03* g
Bone-in, Skin-on leg Quarter Weight ([1]; 3 PPM in feed): 665.64** g
Dressing Percentage ([1]; 3 PPM in feed): 71.14**
Fat Pad Weight ([1]; 3 PPM in feed): 51.67 g
Final Weight Day 49 ([1]; 3 PPM in feed): 2.78** kg
Hot Carcass Weight ([1]; 3 PPM in feed): 1995.58** g
Interim Weight Day 35 ([1]; 3 PPM in feed): 1.66* kg
Pen Feed Intake ([1]; 3 PPM in feed): 41.22 kg
Total Weight Gain (d 21-49) ([1]; 3 PPM in feed): 2.09** kg
Viscera Weight ([1]; 3 PPM in feed): 265.82 g
Weight Gain Period 1 (d 21-35) ([1]; 3 PPM in feed): 0.96* kg
Weight Gain Period 2 (d 35-49) ([1]; 3 PPM in feed): 1.12** kg
Feed Efficiency F/G ([1]; 3 PPM in feed): 2.04
improvement of feed efficiency (feed/gain) compared with control ([1]; 3 PPM, P=0.1426): 6.85%
increase in bone-in, skin-on, leg quarters weight ([1]; 3 PPM, P=0.0001): 10.63%
increase in hot carcass weights over control ([1]; 3 PPM, P=0.0001): 6.50%
decrease in viscera weights compared to control ([1]; 3 PPM, P=0.4004): 1.54%
increase in weight gain over control ([1]; 3 PPM, entire 28-day treatment period, P=0.0051): 5.03%
increase in weight gain over control ([1]; 3 PPM, first 14 days of the treatment period, P=0.0395): 3.22%
increase in weight gain over control ([1]; 3 PPM, last 14 days of treatment, P=0.0064): 6.67%
Bone-in, Skin-on Breast Weight ([1]; 15 PPM in feed): 600.55 g
Bone-in, Skin-on leg Quarter Weight ([1]; 15 PPM in feed): 635.36** g
Dressing Percentage ([1]; 15 PPM in feed): 71.16**
Fat Pad Weight ([1]; 15 PPM in feed): 49.16 g
Final Weight Day 49 ([1]; 15 PPM in feed): 2.70 kg
Hot Carcass Weight ([1]; 15 PPM in feed): 1928.17* g
Interim Weight Day 35 ([1]; 15 PPM in feed): 1.63 kg
Pen Feed Intake ([1]; 15 PPM in feed): 39.09 kg
Total Weight Gain (d 21-49) ([1]; 15 PPM in feed): 2.01 kg
Viscera Weight ([1]; 15 PPM in feed): 261.08 g
Weight Gain Period 1 (d 21-35) ([1]; 15 PPM in feed): 0.94 kg
Weight Gain Period 2 (d 35-49) ([1]; 15 PPM in feed): 1.07 kg
Feed Efficiency F/G ([1]; 15 PPM in feed): 2.09
improvement of feed efficiency (feed/gain) compared with control ([1]; 15 PPM, P=0.3594): 4.57%
increase in bone-in, skin-on, leg quarters weight ([1]; 15 PPM, P=0.0003): 5.60%
increase in hot carcass weights over control ([1]; 15 PPM, P=0.0434): 2.90%
decrease in viscera weights compared to control ([1]; 15 PPM, P=0.0764): 3.29%
increase in weight gain over control ([1]; 15 PPM, entire 28-day treatment period, P=0.5419): 1.01%
increase in weight gain over control ([1]; 15 PPM, first 14 days of the treatment period, P=0.7600): 1.08%
increase in weight gain over control ([1]; 15 PPM, last 14 days of treatment, P=0.5028): 1.90%
effect on fat pad weight (fat accretion) ([1]; at either dose (3 PPM, 15 PPM)): no significant effect
increase in breast muscle weight (bone and skin attached) ([1]; high dose (15 PPM), P=0.5351): 1.06%
increase in breast muscle weight (bone and skin attached) ([1]; low dose (3 PPM), P=0.0227): 4.00%
Conformation score ([2]; Compound 6 treatments vs CONTROL, P<0.005): higher
Fat thickness at the twelfth rib ([2]; Compound 6 treatments vs CONTROL, P>0.78): not different
Dressing percent ([2]; Compound 6 treatments vs CONTROL, F-test P=0.1138, Treatment P<0.05): to be higher
Feed efficiency ([2]; HIGH, 0.500 mg per kg BW): 4.18 pound of feed per pound of gain
Yield grade (YG) ([2]; HIGH, 0.500 mg per kg BW): 2.46
area of the longissimus dorsi muscle at the twelfth rib ([2]; HIGH, 0.500 mg per kg BW): 14.5 in^2
Feed efficiency ([2]; LOW, 0.125 mg per kg BW): 4.36 pound of feed per pound of gain
area of the longissimus dorsi muscle at the twelfth rib ([2]; LOW, 0.125 mg per kg BW): 13.5 in^2
Yield grade (YG) ([2]; LOW, 0.125 mg per kg BW, lower value = more saleable meat): 2.76
Feed efficiency ([2]; MED, 0.250 mg per kg BW): 4.19 pound of feed per pound of gain
Yield grade (YG) ([2]; MED, 0.250 mg per kg BW): 2.51
area of the longissimus dorsi muscle at the twelfth rib ([2]; MED, 0.250 mg per kg BW): 14.3 in^2
carcass composition (% fat, % protein, % moisture, % bone) ([2]; among the treatments, P>0.12, calculated by Hankins and Howe equations): did not differ statistically
USDA quality grade and marbling scores ([2]; among the treatments, P>0.90): Neither the USDA quality grade nor marbling scores differed
Daily dry matter intake ([2]; between the treatments (CONTROL, LOW, MED, HIGH), P>0.47): did not differ
